According to patent US4740233A, “Substituted 1,2,4-triazolo[1,5-a]-pyrimidine-2-sulfonamides and compositions and methods of controlling undesired vegetation and suppressing the nitrification of ammonium nitrogen in soil” (The Dow Chemical Company, priority 1986, dated 1988):

What was measured:
[1] = tested on: annual morning glory; assay: Preemergent control of plant species; type: in vivo, Ipomoea spp.; conditions: Ipomoea, pre-emergence, 336 h; 0.25 lb/acre; read-out: percent preemergent control
How it was run: (§1)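 Seeds sown in agricultural soil in greenhouse beds, then aqueous-emulsion compositions applied uniformly to the bed surface at listed rates. Beds kept two weeks under greenhouse growth conditions with watering. Control expressed as growth reduction versus water-treated beds of the same species.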

[2] = tested on: yellow nutsedge; assay: Preemergent control of plant species; type: in vivo, Cyperus esculentus; conditions: Cyperus, pre-emergence, 336 h; 0.25 lb/acre; read-out: percent preemergent control
How it was run: as §1

[3] = tested on: wild oats; assay: Preemergent control of plant species; type: in vivo; conditions: Avena fatua, pre-emergence, 336 h; 0.25 lb/acre; read-out: percent preemergent control
Procedure: The seeds of various species of plants were planted in beds of good agricultural soil in a greenhouse. A number of compositions of the present invention, generally in the nature of an aqueous emulsion, were applied at rates listed in the table so as to deposit a predetermined amount of active ingredients uniformly throughout the surface of the bed. Another seed bed was treated only with water to serve as a control. After treatment the seed beds were maintained for two weeks under greenhouse conditions conducive for good plant growth and watered as necessary. Control refers to the reduction in growth compared to the observed results of the same untreated species.

[4] = tested on: velvetleaf; assay: Preemergent control of plant species; type: in vivo, Abutilon theophrasti; conditions: Abutilon theophrasti, pre-emergence, 336 h; 0.25 lb/acre; read-out: percent preemergent control
How it was run: as §1

[5] = tested on: barnyardgrass; assay: Preemergent control of plant species; type: in vivo, Echinochloa crusgalli; conditions: Echinochloa crus-galli, pre-emergence, 336 h; 0.25 lb/acre; read-out: percent preemergent control
How it was run: as §1

[6] = tested on: wheat; assay: Preemergent control of plant species; type: in vivo, Triticum aestivum; conditions: Triticum aestivum, pre-emergence, 336 h; 0.25 lb/acre; read-out: percent preemergent control
How it was run: as §1

[7] = tested on: sorghum; assay: Preemergent control of plant species; type: in vivo, Sorghum vulgare; conditions: Sorghum, pre-emergence, 336 h; 0.25 lb/acre; read-out: percent preemergent control
How it was run: as §1

[8] = tested on: sugar beet; assay: Preemergent control of plant species; type: in vivo, Beta saccharifera; conditions: Beta vulgaris, pre-emergence, 336 h; 0.25 lb/acre; read-out: percent preemergent control
How it was run: as §1

[9] = tested on: yellow foxtail; assay: Preemergent control of plant species; type: in vivo, Setaria lutescens; conditions: Setaria, pre-emergence, 336 h; 0.25 lb/acre; read-out: percent preemergent control
How it was run: as §1

[10] = tested on: jimsonweed; assay: Preemergent control of plant species; type: in vivo, Datura stramonium; conditions: Datura stramonium, pre-emergence, 336 h; 0.25 lb/acre; read-out: percent preemergent control
How it was run: as §1

[11] = tested on: soybean; assay: Preemergent control of plant species; type: in vivo, Glycine max.; conditions: Glycine max, pre-emergence, 336 h; 0.25 lb/acre; read-out: percent preemergent control
How it was run: as §1

[12] = tested on: corn; assay: Preemergent control of plant species; type: in vivo, Zea mays; conditions: Zea mays, pre-emergence, 336 h; 0.25 lb/acre; read-out: percent preemergent control
How it was run: as §1

[13] = tested on: cotton; assay: Preemergent control of plant species; type: in vivo, Gossypium spp.; conditions: Gossypium hirsutum, pre-emergence, 336 h; 0.25 lb/acre; read-out: percent preemergent control
How it was run: as §1

[14] = tested on: rice; assay: Preemergent control of plant species; type: in vivo, Oryza sativa; conditions: Oryza sativa, pre-emergence, 336 h; 0.25 lb/acre; read-out: percent preemergent control
How it was run: as §1

[15] = tested on: johnson grass; assay: Preemergent control of plant species; type: in vivo, Sorghum halepense; conditions: Sorghum halepense, pre-emergence, 336 h; 0.25 lb/acre; read-out: percent preemergent control
How it was run: as §1

[16] = tested on: rape; assay: Preemergent control of plant species; type: in vivo, Brassica napus; conditions: Brassica napus, pre-emergence, 336 h; 0.25 lb/acre; read-out: percent preemergent control
How it was run: as §1

[17] = tested on: nitrification of ammonium nitrogen; assay: Suppression of nitrification of ammonium nitrogen in soil; conditions: 27° C.
How it was run: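 Soil (20 g) moistened to its 1/3 bar tension value, mixed with test chemical and incubated sealed for two weeks at 27° C. Nitrate extracted with ammonium sulfate solution and measured by nitrate-specific ion electrode; value given as % NH4-N remaining.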

SMILES	pest or weed control at 280.212 g/ha [1] [%]	pest or weed control at 280.212 g/ha [2] [%]	pest or weed control at 280.212 g/ha [3] [%]	pest or weed control at 280.212 g/ha [4] [%]	pest or weed control at 280.212 g/ha [5] [%]	plant injury at 280.212 g/ha [6] [%]	plant injury at 280.212 g/ha [7] [%]	plant injury at 280.212 g/ha [8] [%]	pest or weed control at 280.212 g/ha [9] [%]	pest or weed control at 280.212 g/ha [10] [%]	plant injury at 280.212 g/ha [11] [%]	plant injury at 280.212 g/ha [12] [%]	plant injury at 280.212 g/ha [13] [%]	plant injury at 280.212 g/ha [14] [%]	pest or weed control at 280.212 g/ha [15] [%]	plant injury at 280.212 g/ha [16] [%]	% NH4-N Remaining After 2 Weeks Incubation ([17]; 0.06 ppm) [%]	% NH4-N Remaining After 2 Weeks Incubation ([17]; 0.25 ppm) [%]	% NH4-N Remaining After 2 Weeks Incubation ([17]; 1 ppm) [%]	% NH4-N Remaining After 2 Weeks Incubation ([17]; 4 ppm) [%]
Cc1ccnc2nc(S(=O)(=O)Nc3c(F)cccc3Cl)nn12 [Compound 181]	80	50	40	98	20	0	95	98	80	98	80	0	98	30	60	100	–	–	–	–
Cc1ccn2nc(S(=O)(=O)N(C(=O)C3CC3)c3c(F)cccc3F)nc2n1 [Compound 289]	100	100	100	100	100	80	100	100	100	100	50	95	100	–	100	100	–	–	–	–
Cc1ccn2nc(S(=O)(=O)N(C(=O)C3CCCCC3)c3c(F)cccc3F)nc2n1 [Compound 291]	90	100	70	100	100	100	100	100	100	100	20	55	100	100	100	100	–	–	–	–
Cc1ccn2nc(S(=O)(=O)N(C(=O)c3ccccc3)c3c(Cl)cccc3Cl)nc2n1 [Compound 274, 5-methyl-N-benzoly-N-(2,6-dichlorophenyl)-1,2,4-triazolo[1,5-a]pyrimidine-2-sulfonamide]	80	100	0	100	80	0	90	100	95	90	0	60	95	80	70	100	–	–	–	–
Cc1ccn2nc(S(=O)(=O)Nc3c(C)cccc3C#N)nc2n1 [Compound 165]	60	90	0	30	60	0	60	90	90	90	10	0	90	0	0	75	–	–	–	–
COC(=O)c1cccc(F)c1NS(=O)(=O)c1nc2nc(OC)c(C)cn2n1 [Compound 215]	100	100	100	100	100	100	100	100	100	100	100	100	100	100	100	100	–	–	–	–
CC=CC(=O)N(c1c(F)cccc1F)S(=O)(=O)c1nc2nc(C)ccn2n1 [Compound 288]	100	100	90	100	100	60	100	100	100	100	40	80	100	100	100	100	–	–	–	–
CC(=O)c1cccc(C)c1NS(=O)(=O)c1nc2nc(C)ccn2n1 [Compound 166]	95	100	30	100	80	20	80	100	80	90	80	10	100	40	20	100	–	–	–	–
Cc1ccnc2nc(S(=O)(=O)Nc3c(F)cccc3F)nn12 [Compound 185]	80	0	0	100	20	0	90	98	–	90	70	0	98	20	90	100	–	–	–	–
CC(=O)OCc1cccc(Cl)c1NS(=O)(=O)c1nc2nc(C)cc(C)n2n1 [Compound 94, 5,7-dimethyl-N-(2-acetoxymethyl-6-chlorophenyl)-1,2,4-triazolo[1,5-a]pyrimidine-2-sulfonamide]	0	0	0	0	0	–	0	0	0	0	50	0	60	0	0	100	28	48	56	84
